In patent US9546164B2 (GENENTECH, INC., priority 2013, dated 2017):
Where a name gives a salt, the structure may show the parent alone.

Each compound was assayed against hNav1.7 (Homo sapiens (Human), UniProt Q15858) (assay: Tritiated sulfonamide competitive binding to membranes from cells expressing hNav1.7 and the β1 subunit). Conditions: not given.
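Further: Filter-bound radioactivity counted by liquid scintillation, nonspecific binding defined with excess unlabelled ligand, IC50 fitted to percent inhibition of specific binding.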

Chain of hNav1.7 (Q15858 other isoform, or with tags, fused parts or gaps): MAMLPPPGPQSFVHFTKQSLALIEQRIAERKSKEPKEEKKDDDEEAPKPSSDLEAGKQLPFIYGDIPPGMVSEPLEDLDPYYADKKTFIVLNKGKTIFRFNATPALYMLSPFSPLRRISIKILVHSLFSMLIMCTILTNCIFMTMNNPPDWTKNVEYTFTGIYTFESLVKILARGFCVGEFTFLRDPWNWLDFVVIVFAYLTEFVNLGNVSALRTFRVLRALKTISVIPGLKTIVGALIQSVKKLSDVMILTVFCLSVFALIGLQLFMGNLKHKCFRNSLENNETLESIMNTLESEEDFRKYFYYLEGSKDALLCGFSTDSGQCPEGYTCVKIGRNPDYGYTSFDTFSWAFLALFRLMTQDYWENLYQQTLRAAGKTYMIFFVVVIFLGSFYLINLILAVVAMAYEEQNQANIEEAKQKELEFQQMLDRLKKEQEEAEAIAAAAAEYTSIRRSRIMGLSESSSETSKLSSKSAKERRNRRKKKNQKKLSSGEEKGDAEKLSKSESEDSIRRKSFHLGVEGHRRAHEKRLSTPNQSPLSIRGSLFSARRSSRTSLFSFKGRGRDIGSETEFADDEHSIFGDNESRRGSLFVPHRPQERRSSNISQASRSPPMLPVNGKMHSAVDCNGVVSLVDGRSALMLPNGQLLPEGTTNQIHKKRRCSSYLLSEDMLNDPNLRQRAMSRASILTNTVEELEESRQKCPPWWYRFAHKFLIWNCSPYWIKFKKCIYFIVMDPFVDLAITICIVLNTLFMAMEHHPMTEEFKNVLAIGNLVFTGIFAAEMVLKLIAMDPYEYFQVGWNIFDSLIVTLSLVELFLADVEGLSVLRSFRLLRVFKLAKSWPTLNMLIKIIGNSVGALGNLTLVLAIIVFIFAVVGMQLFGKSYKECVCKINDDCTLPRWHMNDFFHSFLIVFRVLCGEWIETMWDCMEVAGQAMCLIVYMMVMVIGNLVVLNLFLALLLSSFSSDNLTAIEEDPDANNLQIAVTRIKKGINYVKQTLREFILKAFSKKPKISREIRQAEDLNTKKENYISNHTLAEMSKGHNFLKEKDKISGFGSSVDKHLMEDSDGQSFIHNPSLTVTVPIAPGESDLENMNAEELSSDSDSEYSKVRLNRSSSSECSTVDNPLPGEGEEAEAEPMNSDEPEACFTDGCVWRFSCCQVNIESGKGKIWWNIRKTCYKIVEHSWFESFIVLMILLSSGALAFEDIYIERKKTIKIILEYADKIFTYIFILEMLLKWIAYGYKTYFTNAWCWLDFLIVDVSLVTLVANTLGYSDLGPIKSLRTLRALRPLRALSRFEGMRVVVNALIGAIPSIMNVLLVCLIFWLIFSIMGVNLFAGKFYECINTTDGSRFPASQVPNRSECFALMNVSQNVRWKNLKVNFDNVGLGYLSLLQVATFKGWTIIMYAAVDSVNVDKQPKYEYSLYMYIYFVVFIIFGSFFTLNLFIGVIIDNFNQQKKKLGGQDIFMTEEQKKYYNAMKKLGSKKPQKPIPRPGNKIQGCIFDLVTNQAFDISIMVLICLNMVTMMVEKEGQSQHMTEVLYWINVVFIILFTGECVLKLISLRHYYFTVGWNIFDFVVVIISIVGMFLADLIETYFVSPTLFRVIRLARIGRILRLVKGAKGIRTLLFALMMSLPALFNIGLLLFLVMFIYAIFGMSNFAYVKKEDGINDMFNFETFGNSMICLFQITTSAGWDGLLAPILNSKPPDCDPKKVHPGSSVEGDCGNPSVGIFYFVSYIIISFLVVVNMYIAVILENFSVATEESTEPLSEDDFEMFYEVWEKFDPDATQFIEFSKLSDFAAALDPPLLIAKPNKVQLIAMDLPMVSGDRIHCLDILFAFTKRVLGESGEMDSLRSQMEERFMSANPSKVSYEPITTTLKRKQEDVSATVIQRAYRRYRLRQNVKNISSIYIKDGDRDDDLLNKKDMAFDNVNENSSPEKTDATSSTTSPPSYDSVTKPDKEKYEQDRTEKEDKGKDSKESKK
Chain of hNav1.7 (Q07699 19-218 partner): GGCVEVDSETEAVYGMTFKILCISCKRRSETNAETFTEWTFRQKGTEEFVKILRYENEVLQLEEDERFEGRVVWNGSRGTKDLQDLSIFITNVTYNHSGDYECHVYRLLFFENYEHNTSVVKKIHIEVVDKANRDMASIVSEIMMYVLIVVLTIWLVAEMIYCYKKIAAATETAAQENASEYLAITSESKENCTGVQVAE

Question: How did the IC50 turn out when `CS(=O)(=O)NC(=O)c1cc(C2CC2)c(CN2CCC([S+]([O-])c3cc(Cl)cc(Cl)c3)CC2)cc1F` (centres unmarked) [Example 534, 5-cyclopropyl-4-((4-((3,5-dichlorophenyl)sulfinyl)piperidin-1-yl)methyl)-2-fluoro-N-(methylsulfonyl)benzamide, trifluoroacetic acid salt] was run?
Answer: The IC50 was 879 nM.

Question: How did the IC50 turn out when `C[C@H](c1cc(Cl)cc(Cl)c1)N1CCC(COc2cc(F)c(C(=O)NS(=O)(=O)C3CC3)cc2C2CC2)CC1` [Example 269, (R)-5-cyclopropyl-N-(cyclopropylsulfonyl)-4-((1-(1-(3,5-dichlorophenyl)ethyl)piperidin-4-yl)methoxy)-2-fluorobenzamide] was run?
Answer: The IC50 was 3.4 nM.

Question: `CS(=O)(=O)NC(=O)c1cc(C2CC2)c(CN2CCC(Oc3ncc(C(F)(F)F)cc3Cl)CC2)cc1F` [Example 523, 4-((4-((3-chloro-5-(trifluoromethyl)pyridin-2-yl)oxy)piperidin-1-yl)methyl)-5-cyclopropyl-2-fluoro-N-(methylsulfonyl)benzamide, trifluoroacetic acid salt] was tested. Which IC50 did it give?
Answer: Its IC50 is 5.8 nM.

Question: `CS(=O)(=O)NC(=O)c1cc(C2CC2)c(OCC2CCN(Cc3ccc(F)c(C#N)c3)CC2)cc1F` [Example 591, 4-((1-(3-cyano-4-fluorobenzyl)piperidin-4-yl)methoxy)-5-cyclopropyl-2-fluoro-N-(methylsulfonyl)benzamide] was tested. Which IC50 did it give?
Answer: The IC50 was 240 nM.

Question: `O=C(NS(=O)(=O)C1CC1)c1cc(C2CC2)c(O[C@@H]2CCCN(Cc3ccc(F)cc3Cl)C2)cc1F` [Example 7, (R)-4-((1-(2-chloro-4-fluorobenzyl)piperidin-3-yl)oxy)-5-cyclopropyl-N-(cyclopropylsulfonyl)-2-fluorobenzamide] was tested. Which IC50 did it give?
Answer: The IC50 was 3.5 nM.

Same assay, conditions: read-out: Ligand Binding Assay; 100 pM [3H]compound, membranes with hNav1.7 and β1 subunit, 18 h, room temperature

Question: For `O=C(NS(=O)(=O)N1CCC1)c1cc(C2CC2)c(OCC2CCN(CCC(F)(F)F)CC2)cc1F` [Example 194, N-(azetidin-1-ylsulfonyl)-5-cyclopropyl-2-fluoro-4-((1-(3,3,3-trifluoropropyl)piperidin-4-yl)methoxy)benzamide], which IC50 is on record?
Answer: Its IC50 is 180 nM.

Question: For `C[C@H](c1ccc(F)cc1)N1CCC[C@@H](Oc2cc(F)c(C(=O)NS(=O)(=O)C3CC3)cc2C2CC2)C1` [Example 317, 5-cyclopropyl-N-(cyclopropylsulfonyl)-2-fluoro-4-(((R)-1-((R)-1-(4-fluorophenyl)ethyl)piperidin-3-yl)oxy)benzamide], which IC50 is on record?
Answer: Its IC50 is 6 nM.

Question: Which IC50 does the source give for `C[C@@H](c1cc(Cl)cc(Cl)c1)N1CC(C)(COc2cc(F)c(C(=O)NS(C)(=O)=O)cc2C2CC2)C1` (single isomer, unassigned) [Example 186] here?
Answer: Its IC50 is 4 nM.

Question: For `CS(=O)(=O)NC(=O)c1cc(C2CC2)c(OCC2CCN(C(=O)c3ccccc3)CC2)cc1F` [Example 197, 4-((1-Benzoylpiperidin-4-yl)methoxy)-5-cyclopropyl-2-fluoro-N-(methylsulfonyl)benzamide], which IC50 is on record?
Answer: Its IC50 is 3200 nM.

Question: How did the IC50 turn out when `O=C(NS(=O)(=O)C1CC1)c1cc(C2CC2)c(OCC2CCN(C(c3ccc(Cl)cc3)c3ccc(Cl)cc3)CC2)cc1F` [Example 400, 4-((1-(bis(4-chlorophenyl)methyl)piperidin-4-yl)methoxy)-5-cyclopropyl-N-(cyclopropylsulfonyl)-2-fluorobenzamide, trifluoroacetic acid salt] was run?
Answer: Its IC50 is 2.1 nM.

Question: For `CC1(COc2cc(F)c(C(=O)NS(C)(=O)=O)cc2C2CC2)CCN(Cc2cc(Cl)cc(Cl)c2)CC1` [Example 123, 5-cyclopropyl-4-((1-(3,5-dichlorobenzyl)-4-methylpiperidin-4-yl)methoxy)-2-fluoro-N-(methylsulfonyl)benzamide], which IC50 is on record?
Answer: Its IC50 is 2.9 nM.

Question: `O=C(NS(=O)(=O)N1CCC1)c1cc(C2CC2)c(CN2CCC[C@@H](Oc3cc(Cl)cc(Cl)c3)C2)cc1F` [Example 56, (R)—N-(azetidin-1-ylsulfonyl)-5-cyclopropyl-4-((3-(3,5-dichlorophenoxy)piperidin-1-yl)methyl)-2-fluorobenzamide] was tested. Which IC50 did it give?
Answer: Its IC50 is 63.5 nM.

Question: For `O=C(NS(=O)(=O)C1CC1)c1cc(C2CC2)c(CN2CCO[C@@H](Cc3ccc(Cl)c(Cl)c3)C2)cc1F` [Example 462], which IC50 is on record?
Answer: Its IC50 is 36.3 nM.

Question: How did the IC50 turn out when `CS(=O)(=O)NC(=O)c1cc(C2CC2)c(OCC2CCN(Cc3ccc(F)cc3Cl)CC2)cc1F` [Example 105, 4-((1-(2-Chloro-4-fluorobenzyl)piperidin-4-yl)methoxy)-5-cyclopropyl-2-fluoro-N-(methylsulfonyl)benzamide] was run?
Answer: Its IC50 is 16.3 nM.

Question: For `CCS(=O)(=O)NC(=O)c1cc(C2CC2)c(OCC2CCN([C@@H](C)c3ccc(Cl)cc3Cl)CC2)cc1F` [Example 285, (S)-5-cyclopropyl-4-((1-(1-(2,4-dichlorophenyl)ethyl)piperidin-4-yl)methoxy)-N-(ethylsulfonyl)-2-fluorobenzamide], which IC50 is on record?
Answer: The IC50 was 3.3 nM.

Question: Which IC50 does the source give for `CS(=O)(=O)NC(=O)c1cc(C2CC2)c(O[C@@H]2CCCN(CC3CCC4(CCC4)CC3)C2)cc1F` [Example 444, (R)-5-cyclopropyl-2-fluoro-N-(methylsulfonyl)-4-((11-(spiro[3.5]nonan-7-ylmethyl)piperidin-3-yl)oxy)benzamide, trifluoroacetic acid salt] here?
Answer: The IC50 was 4.5 nM.

Question: Which IC50 does the source give for `COC[C@H](c1ccc(Cl)c(Cl)c1)N1CCC(COc2cc(F)c(C(=O)NS(C)(=O)=O)cc2C2CC2)CC1` (single isomer, unassigned) [Example 265] here?
Answer: The IC50 was 100 nM.

Question: For `CS(=O)(=O)NC(=O)c1cc(C2CC2)c(OCC2CCN(S(=O)(=O)c3ccc(Br)c(Cl)c3)CC2)cc1F` [Example 390, 4-((1-((4-bromo-3-chlorophenyl)sulfonyl)piperidin-4-yl)methoxy)-5-cyclopropyl-2-fluoro-N-(methylsulfonyl)benzamide], which IC50 is on record?
Answer: The IC50 was 18.5 nM.

Question: `CS(=O)(=O)NC(=O)c1cc(C2CC2)c(OCC2CCN(C(c3ccc(F)c(Cl)c3)C(F)(F)F)CC2)cc1F` (centres unmarked) [Example 301, 4-((1-(1-(3-chloro-4-fluorophenyl)-2,2,2-trifluoroethyl)piperidin-4-yl)methoxy)-5-cyclopropyl-2-fluoro-N-(methylsulfonyl)benzamide] was tested. Which IC50 did it give?
Answer: The IC50 was 3 nM.

Question: Which IC50 does the source give for `COc1cccc(CN2CCC(C)(COc3cc(F)c(C(=O)NS(C)(=O)=O)cc3C3CC3)CC2)n1` [Example 576] here?
Answer: Its IC50 is 270 nM.

Question: How did the IC50 turn out when `CS(=O)(=O)NC(=O)c1cc(C2CC2)c(OCC2CN([C@H](c3ccccc3)c3ccncc3)C2)cc1F` [Example 153, (R)-5-Cyclopropyl-2-fluoro-N-(methylsulfonyl)-4-((1-(phenyl(pyridin-4-yl)methyl)azetidin-3-yl)methoxy)benzamide] was run?
Answer: The IC50 was 439 nM.

Question: For `CS(=O)(=O)NC(=O)c1cc(C2CC2)c(CN2CCO[C@H](Cc3ccc(Cl)c(Cl)c3)C2)cc1F` [Example 458, (R)-5-cyclopropyl-4-((2-(3,4-dichlorobenzyl)morpholino)methyl)-2-fluoro-N-(methylsulfonyl)benzamide], which IC50 is on record?
Answer: The IC50 was 4.4 nM.

Question: `CS(=O)(=O)NC(=O)c1cc(C2CC2)c(OCC2CCN(S(=O)(=O)c3ccc(C(F)(F)F)cc3)CC2)cc1F` [Example 372, 5-cyclopropyl-2-fluoro-N-(methylsulfonyl)-4-((1-((4-(trifluoromethyl)phenyl)sulfonyl)piperidin-4-yl)methoxy)benzamide] was tested. Which IC50 did it give?
Answer: Its IC50 is 49.2 nM.

Question: For `CS(=O)(=O)NC(=O)c1cc(C2CC2)c(OCC2CCN([C@@H]3c4ccccc4C[C@@H]3O)CC2)cc1F` [Example 199, 5-Cyclopropyl-2-fluoro-4-((1-((1R,2S)-2-hydroxy-2,3-dihydro-1H-inden-1-yl)piperidin-4-yl)methoxy)-N-(methylsulfonyl)benzamide], which IC50 is on record?
Answer: Its IC50 is 1400 nM.

Question: With `CCS(=O)(=O)NC(=O)c1cc(C2CC2)c(OCC2(C)CN(c3ncc(C(F)(F)F)cc3Cl)C2)cc1F` [Example 482, 4-((1-(3-chloro-5-(trifluoromethyl)pyridin-2-yl)-3-methylazetidin-3-yl)methoxy)-5-cyclopropyl-N-(ethylsulfonyl)-2-fluorobenzamide] as the compound, how does the IC50 read?
Answer: Its IC50 is 3.3 nM.

Question: For `CS(=O)(=O)NC(=O)c1cc(C2CC2)c(OCC2CCN(S(=O)(=O)c3cc(Cl)c(Br)cc3F)CC2)cc1F` [Example 366, 4-((1-((4-bromo-5-chloro-2-fluorophenyl)sulfonyl)piperidin-4-yl)methoxy)-5-cyclopropyl-2-fluoro-N-(methylsulfonyl)benzamide], which IC50 is on record?
Answer: Its IC50 is 9.1 nM.

Question: With `CS(=O)(=O)NC(=O)c1cc(C2CC2)c(O[C@@H]2CCCN(CC3(C(F)(F)F)CCCC3)C2)cc1F` [Example 327, (R)-5-cyclopropyl-2-fluoro-N-(methylsulfonyl)-4-((1-((1-(trifluoromethyl)cyclopentyl)methyl)piperidin-3-yl)oxy)benzamide] as the compound, how does the IC50 read?
Answer: The IC50 was 2.7 nM.

Question: With `CC1(COc2cc(F)c(C(=O)NS(=O)(=O)C3CC3)cc2C2CC2)CN(c2cc(Cl)ncc2C(F)(F)F)C1` [Example 487, 4-((1-(2-chloro-5-(trifluoromethyl)pyridin-4-yl)-3-methylazetidin-3-yl)methoxy)-5-cyclopropyl-N-(cyclopropylsulfonyl)-2-fluorobenzamide, trifluoroacetic acid salt] as the compound, how does the IC50 read?
Answer: The IC50 was 13.5 nM.

Question: With `CC1(COc2cc(F)c(C(=O)NS(=O)(=O)N3CCC3)cc2C2CC2)CN(C(c2ccccc2)c2ccccc2)C1` [Example 71, N-(azetidin-1-ylsulfonyl)-4-((1-benzhydryl-3-methylazetidin-3-yl)methoxy)-5-cyclopropyl-2-fluorobenzamide] as the compound, how does the IC50 read?
Answer: Its IC50 is 3.1 nM.

Question: How did the IC50 turn out when `CS(=O)(=O)NC(=O)c1cc(C2CC2)c(OCC2CCN(Cc3ccc(Cl)c(F)c3)CC2)cc1F` [Example 138, 4-((1-(4-Chloro-3-fluorobenzyl)piperidin-4-yl)methoxy)-5-cyclopropyl-2-fluoro-N-(methylsulfonyl)benzamide] was run?
Answer: Its IC50 is 11.2 nM.

Question: How did the IC50 turn out when `O=C(NS(=O)(=O)C1CC1)c1cc(C2CC2)c(OCC2CCN(S(=O)(=O)c3cc(Cl)cc(Cl)c3)CC2)cc1F` [Example 275, 5-Cyclopropyl-N-(cyclopropylsulfonyl)-4-((1-((3,5-dichlorophenyl)sulfonyl)piperidin-4-yl)methoxy)-2-fluorobenzamide] was run?
Answer: Its IC50 is 6.9 nM.

Same assay, conditions: read-out: Ligand Binding Assay; 100 pM [3H]compound, membranes with hNav1.7 and β1 subunit, 18 h, room temperature; trifluoroacetic acid salt

Question: For `CS(=O)(=O)NC(=O)c1cc(C2CC2)c(CN2[C@@H]3CC[C@H]2C[C@@H](Oc2ncc(C(F)(F)F)cc2Cl)C3)cc1F` [Example 552, 4-(((1R,3r,5S)-3-((3-chloro-5-(trifluoromethyl)pyridin-2-yl)oxy)-8-azabicyclo[3.2.1]octan-8-yl)methyl)-5-cyclopropyl-2-fluoro-N-(methylsulfonyl)benzamide, trifluoroacetic acid salt], which IC50 is on record?
Answer: Its IC50 is 7 nM.
